In patent US20250205157A1, “TOPICAL RUXOLITINIB FOAM” (Incyte Corporation, priority 2023, published 2025):

Columns and labels:
[1] = Solubility of ruxolitinib phosphate in organic media; format: physicochemical; details: for Reported Solubility % w/w, ruxolitinib phosphate: ambient temperature
Procedure: Under pre-formulation studies, the solubility of ruxolitinib phosphate was evaluated in organic media over the course of three days at ambient temperature.

[2] = Solubility of ruxolitinib phosphate in ethanol-water solutions and hydroethanolic foamable carrier components; format: physicochemical
Procedure: Based on the good solubility of ruxolitinib phosphate in hydroethanolic mixtures, the solubility of ruxolitinib phosphate in a hydroethanolic base formulation was studied. Utilizing Method A (Materials and Methods), the formulations in Table 23 were prepared. […] PG was added as a penetration enhancer to facilitate better skin permeation of the API from application of the foam.

[3] = Chemical stability of foam formulations by HPLC (assay % LC, total impurities); format: physicochemical; details: for chemical stability, in words: to 3 months, 25° C./60% RH and 40° C./75% RH
Source text: The protocol used for determining the purity was a liquid chromatography (LC) method. The LC method is provided below.
This method is for the determination of Ruxolitinib Phosphate in foam formulations that contain Ruxolitinib Phosphate as active pharmaceutical ingredient (API). The method is suitable for the determination of active content in stability screening samples. The method can also be used to estimate the level of major degradants of Ruxolitinib Phosphate.
Foam formulations contain about 0.5% Ruxolitinib base (API added as Ruxolitinib Phosphate)
Weigh accurately about 500 mg of sample into a tared 25 mL volumetric flask.
Equilibrate the chromatographic system with starting mobile phase composition until a stable baseline is obtained. The following gradient (Table 12) at a flow rate of 1.0-1.5 mL/min is used: […]
Using the instrument conditions, equilibrate the chromatographic system with mobile phase. Record the chromatograms of Ruxolitinib Phosphate peak for the standard and sample solutions. The retention time of principal peak in the HPLC chromatogram of the sample should correspond with the retention time of the principal peak produced by Ruxolitinib Phosphate Standard Solution. The retention time difference between sample and standard should not be more than 5%.

[4] = Microscopic examination of the foam samples (drug recrystallisation); format: physicochemical
alopecia = details: 8 mg and 12 mg BID orally; cited from earlier work
[5] = Minipig plasma concentrations / toxicokinetic evaluation after topical foam; details: topical application of foam formulations
[6] = 1,3-Dimethyl-2-Imadolidinone (DMI) (neat)
[7] = Isopropyl Myristate (IPM) (neat)

N#CC[C@H](C1CCCC1)n1cc(-c2ncnc3[nH]ccc23)cn1 [Ruxolitinib phosphate]
Calculated Solubility, % w/w in base form [1, 6]: 0.168 % w/w | Reported Solubility % w/w, ruxolitinib phosphate [1, 6]: 0.22 % w/w | Calculated Solubility, % w/w in base form ([1]; Castor Oil (neat)): 0.028 % w/w | Reported Solubility % w/w, ruxolitinib phosphate ([1]; Castor Oil (neat)): 0.037 % w/w | Calculated Solubility, % w/w in base form ([1]; DIPA (neat)): <0.01 % w/w | Reported Solubility % w/w, ruxolitinib phosphate ([1]; DIPA (neat)): <0.01 % w/w | Calculated Solubility, % w/w in base form ([1]; Ethyl Oleate (neat)): <0.01 % w/w | Reported Solubility % w/w, ruxolitinib phosphate ([1]; Ethyl Oleate (neat)): <0.01 % w/w | Calculated Solubility, % w/w in base form ([1]; Etocas 35 (neat)): 0.729 % w/w | Reported Solubility % w/w, ruxolitinib phosphate ([1]; Etocas 35 (neat)): 0.962 % w/w | Calculated Solubility, % w/w in base form ([1]; GTCC (neat)): 0.015 % w/w | Reported Solubility % w/w, ruxolitinib phosphate ([1]; GTCC (neat)): 0.02 % w/w | Calculated Solubility, % w/w in base form [1, 7]: <0.01 % w/w | Reported Solubility % w/w, ruxolitinib phosphate [1, 7]: <0.01 % w/w | Calculated Solubility, % w/w in base form ([1]; Light Mineral Oil (LMO) (neat)): <0.01 % w/w | Reported Solubility % w/w, ruxolitinib phosphate ([1]; Light Mineral Oil (LMO) (neat)): <0.01 % w/w | Calculated Solubility, % w/w in base form ([1]; Octadodecabol (ODD) (neat)): 0.022 % w/w | Reported Solubility % w/w, ruxolitinib phosphate ([1]; Octadodecabol (ODD) (neat)): 0.029 % w/w | Calculated Solubility, % w/w in base form ([1]; Oleth-3 (neat)): 0.513 % w/w | Reported Solubility % w/w, ruxolitinib phosphate ([1]; Oleth-3 (neat)): 0.677 % w/w | Calculated Solubility, % w/w in base form ([1]; Oleyl alcohol (neat)): 0.052 % w/w | Reported Solubility % w/w, ruxolitinib phosphate ([1]; Oleyl alcohol (neat), no propellant): 0.068 % w/w | Calculated Solubility, % w/w in base form ([1]; PEG 300 (neat)): 1.169 % w/w | Reported Solubility % w/w, ruxolitinib phosphate ([1]; PEG 300 (neat)): 1.543 % w/w | Calculated Solubility, % w/w in base form ([1]; PEG400 (neat)): 0.846 % w/w | Reported Solubility % w/w, ruxolitinib phosphate ([1]; PEG400 (neat)): 1.117 % w/w | Calculated Solubility, % w/w in base form ([1]; Polysorabte 80 (neat)): 0.920 % w/w | Reported Solubility % w/w, ruxolitinib phosphate ([1]; Polysorabte 80 (neat)): 1.214 % w/w | Calculated Solubility, % w/w in base form ([1]; Polysorbate 20 (neat)): 0.957 % w/w | Reported Solubility % w/w, ruxolitinib phosphate ([1]; Polysorbate 20 (neat)): 1.263 % w/w | Calculated Solubility, % w/w in base form ([1]; Propylene Glycol (PG) (neat)): 1.651 % w/w | Reported Solubility % w/w, ruxolitinib phosphate ([1]; Propylene Glycol (PG) (neat)): 2.179 % w/w | Calculated Solubility, % w/w in base form ([1]; Span 20 (neat)): 0.877 % w/w | Reported Solubility % w/w, ruxolitinib phosphate ([1]; Span 20 (neat)): 1.157 % w/w | Calculated Solubility, % w/w in base form ([1]; Transcutol-P (neat)): 0.927 % w/w | Reported Solubility % w/w, ruxolitinib phosphate ([1]; Transcutol-P (neat)): 1.223 % w/w | amount dissolved in hydroethanolic base ([2]; base having 60% ethanol with and without additional propylene glycol): approximately 3 % (w/w) on a free base basis | solubility (loading level) in ethanol:water ([2]; mixtures of 60:40 or 40:60 ethanol:water): ~4 % on a free base basis (w/w)

[2H]C1([2H])C([C@@H](CC#N)n2cc(-c3ncnc4[nH]ccc34)cn2)C([2H])([2H])C([2H])([2H])C1([2H])[2H] [Deuruxolitinib, (3R)-3-(2,2,3,3,4,4,5,5-D8) cyclopentyl-3-[4-(7H-pyrrolo[2,3-d]pyrimidin-4-yl)-1H-pyrazol-1-yl]propanenitrile]
impurities ([3]; 3-months, 25° C. and 40° C., method detection limit): < 0.05 % area | chemical stability, in words [3]: chemically stable | drug recrystallisation / solubility in the foam [4]: remained soluble in the foam formulation | clinical endpoint (alopecia): met the clinical endpoint | systemic exposure (plasma concentrations) [5]: did not indicate therapeutic relevant concentrations

N#CC[C@H](C1CCCC1)n1cc(-c2ncnc3[nH]ccc23)cn1 [Ruxolitinib]
chemical stability, in words [3]: chemically stable | systemic exposure (plasma concentrations) [5]: did not indicate therapeutic relevant concentrations
